Assay results as given in the supplement of paper PMC10883282.

Experiments:
Test in all cases: relative viability vs DMSO control (72 h) (fraction); higher = more viable cells
SK-ES-1 = test system: SK-ES-1
Outline: (§1)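 Relative viability is percent growth read by ATPLite and averaged over up to triplicate wells. Sarcoma cells were seeded in 384-well plates to reach 80–90% confluence and given 2.5 µl of serially diluted compound after 24 h, from source plates of 10 mM to 0.0002 mM. Incubation lasted 72 h at 37 °C, 5% CO2, with 0.1% DMSO vehicle and a 5 µM positive control, and the data were rescaled so 1 equals full and 0 equals none.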

SW982 = test system: SW982
Outline: as §1

A204 = test system: A204
Outline: as §1

MES-SA = test system: MES-SA
Outline: as §1

RD = test system: RD
Outline: as §1

HS729 = test system: HS729
Outline: as §1

SK-LMS-1 = test system: SK-LMS-1
Outline: as §1

SW1353 = test system: SW1353
Outline: as §1

SW872 = test system: SW872
Outline: as §1

G401 = test system: G401
Outline: as §1

VA-ES-BJ = test system: VA-ES-BJ
Outline: as §1

KHOS-240S = test system: KHOS-240S
Outline: as §1

CNC(=O)c1cc(Oc2ccc(NC(=O)Nc3ccc(Cl)c(C(F)(F)F)c3)cc2)ccn1 [Sorafenib]
Settings | relative viability
A204, 0.00017 µM | 1.07
A204, 0.00051 µM | 1.1
A204, 0.00152 µM | 1.09
A204, 0.00457 µM | 1.11
A204, 0.01372 µM | 1.06
A204, 0.04115 µM | 1.08
A204, 0.1235 µM | 0.914
A204, 0.3704 µM | 0.567
A204, 1.111 µM | 0.51
A204, 3.333 µM | 0.385
A204, 10 µM | 0.157
G401, 0.00017 µM | 0.997
G401, 0.00051 µM | 1
G401, 0.00152 µM | 1.01
G401, 0.00457 µM | 1.01
G401, 0.01372 µM | 1.04
G401, 0.04115 µM | 1.01
G401, 0.1235 µM | 1.02
G401, 0.3704 µM | 0.988
G401, 1.111 µM | 0.893
G401, 3.333 µM | 0.684
G401, 10 µM | 0.147
HS729, 0.00017 µM | 0.948
HS729, 0.00051 µM | 0.966
HS729, 0.00152 µM | 0.939
HS729, 0.00457 µM | 0.978
HS729, 0.01372 µM | 0.946
HS729, 0.04115 µM | 1.02
HS729, 0.1235 µM | 0.937
HS729, 0.3704 µM | 0.85
HS729, 1.111 µM | 0.858
HS729, 3.333 µM | 0.811
HS729, 10 µM | 0.624
KHOS-240S, 0.00017 µM | 1.04
KHOS-240S, 0.00051 µM | 1.07
KHOS-240S, 0.00152 µM | 1.09
KHOS-240S, 0.00457 µM | 1.08
KHOS-240S, 0.01372 µM | 1.06
KHOS-240S, 0.04115 µM | 1.08
KHOS-240S, 0.1235 µM | 1.08
KHOS-240S, 0.3704 µM | 1.11
KHOS-240S, 1.111 µM | 1.05
KHOS-240S, 3.333 µM | 0.728
KHOS-240S, 10 µM | 0.309
MES-SA, 0.00017 µM | 0.928
MES-SA, 0.00051 µM | 0.925
MES-SA, 0.00152 µM | 0.909
MES-SA, 0.00457 µM | 0.934
MES-SA, 0.01372 µM | 0.923
MES-SA, 0.04115 µM | 0.949
MES-SA, 0.1235 µM | 1.01
MES-SA, 0.3704 µM | 1.03
MES-SA, 1.111 µM | 0.985
MES-SA, 3.333 µM | 0.716
MES-SA, 10 µM | 0.135
RD, 0.00017 µM | 1.11
RD, 0.00051 µM | 1.11
RD, 0.00152 µM | 1.09
RD, 0.00457 µM | 1.12
RD, 0.01372 µM | 1.09
RD, 0.04115 µM | 1.12
RD, 0.1235 µM | 1.14
RD, 0.3704 µM | 1.13
RD, 1.111 µM | 1.04
RD, 3.333 µM | 0.9
RD, 10 µM | 0.504
SK-ES-1, 0.00017 µM | 0.978
SK-ES-1, 0.00051 µM | 1.01
SK-ES-1, 0.00152 µM | 1.04
SK-ES-1, 0.00457 µM | 1.05
SK-ES-1, 0.01372 µM | 1.07
SK-ES-1, 0.04115 µM | 1.01
SK-ES-1, 0.1235 µM | 1.06
SK-ES-1, 0.3704 µM | 1.07
SK-ES-1, 1.111 µM | 0.96
SK-ES-1, 3.333 µM | 0.8855
SK-ES-1, 10 µM | 0.252
SK-LMS-1, 0.00017 µM | 1.1
SK-LMS-1, 0.00051 µM | 1.07
SK-LMS-1, 0.00152 µM | 1.11
SK-LMS-1, 0.00457 µM | 1.1
SK-LMS-1, 0.01372 µM | 1.1
SK-LMS-1, 0.04115 µM | 1.12
SK-LMS-1, 0.1235 µM | 1.05
SK-LMS-1, 0.3704 µM | 1.09
SK-LMS-1, 1.111 µM | 1.07
SK-LMS-1, 3.333 µM | 0.713
SK-LMS-1, 10 µM | 0.0735
SW872, 0.00017 µM | 1.09
SW872, 0.00051 µM | 1.09
SW872, 0.00152 µM | 1.05
SW872, 0.00457 µM | 1.06
SW872, 0.01372 µM | 1.09
SW872, 0.04115 µM | 1.09
SW872, 0.1235 µM | 1.07
SW872, 0.3704 µM | 1.09
SW872, 1.111 µM | 1.07
SW872, 3.333 µM | 1.02
SW872, 10 µM | 0.553
SW982, 0.00017 µM | 1.07
SW982, 0.00051 µM | 1.06
SW982, 0.00152 µM | 1.05
SW982, 0.00457 µM | 1.07
SW982, 0.01372 µM | 1.06
SW982, 0.04115 µM | 1.07
SW982, 0.1235 µM | 1.07
SW982, 0.3704 µM | 1.07
SW982, 1.111 µM | 1.06
SW982, 3.333 µM | 0.992
SW982, 10 µM | 0.559
SW1353, 0.00017 µM | 0.98
SW1353, 0.00051 µM | 1.02
SW1353, 0.00152 µM | 1.01
SW1353, 0.00457 µM | 1.01
SW1353, 0.01372 µM | 1.01
SW1353, 0.04115 µM | 1.01
SW1353, 0.1235 µM | 0.992
SW1353, 0.3704 µM | 1.02
SW1353, 1.111 µM | 1.04
SW1353, 3.333 µM | 0.85
SW1353, 10 µM | 0.39
VA-ES-BJ, 0.00017 µM | 1.04
VA-ES-BJ, 0.00051 µM | 1.07
VA-ES-BJ, 0.00152 µM | 1.07
VA-ES-BJ, 0.00457 µM | 1.06
VA-ES-BJ, 0.01372 µM | 1.07
VA-ES-BJ, 0.04115 µM | 1.09
VA-ES-BJ, 0.1235 µM | 1.11
VA-ES-BJ, 0.3704 µM | 1.143
VA-ES-BJ, 1.111 µM | 1.15
VA-ES-BJ, 3.333 µM | 1.14
VA-ES-BJ, 10 µM | 0.436
